How the values were obtained:
[1] = Toxicity experiment of the compound on Huh7.5 (MTT); conditions: human, CC50, Huh7.5 cells, 72 hrs, MTT, half toxic concentration by Reed-Muench method
Procedure: (§1) (1) Toxicity Experiment of the Compound on Huh7.5:
(§2) 100 μL of Huh7.5 cells (1×10^5/ml) was inoculated in 96-wells plates and incubated in an incubator at 37° C. under 5% of CO2 and saturated humidity for 24 hrs. Then different concentration of the compound of the present invention and positive control (VX-950, telaprevir) were added respectively and incubated for a further 72 hrs. 10 μL of MTT (5 mg/mL) was added per well and incubated for another 4 hrs. After the cells were lysed with DMSO, OD570-630 […] was determined on ELIASA. In comparison with OD of the control group, inhibitory rate of each concentration on cell toxicity was calculated, and half toxic concentration of the compound was calculated with Reed-Muench method.

[2] = system: Huh7.5 cells; test: as above
Procedure: as §1, §2

[3] = system: HCV; test: microbe, parasite or virus in culture; format: cell-based, Hepatitis C Virus (HCV); conditions: Huh7.5 cells infected with HCV, 72 hrs, intracellular HCV RNA by qRT-PCR, Reed-Muench method; read-out: EC50
Procedure: (2) Anti-HCV Activity of the Compound in Cells:
The total RNA was extracted from the cells. The intracellular content of HCV and RNA of internal control gene GAPDH were determined by real-time fluorescence qRT-PCR.

[4] = system: Wnt signaling pathway; test: Activity assay of the reporter gene (Wnt signaling pathway activation, Wnt3a conditioned medium); format: cell-based
Procedure: After 6 hours, the cells are collected and activities of the report genes are determined.
Activity Assay of the Reporter Gene
HEK293T, HCT116, SW480 or NIH3T3 cells used for activity assay of the reporter gene were inoculated into 24-wells plates respectively 24 hours before transfection then transfected following the above mentioned reference method. The amount of the plasmids used for Transfection was: 20 ng of TOPFlash, NFAT-Luc, or SRF-Luc, and 25 ng of EGFP-C1 (HEK293T); 25 ng of LEF-Luc, 75 ng of LEF1, and 25 ng of EGFP-C1 (NIH3T3); 100 ng of TOPFlash or Fopfllash and 100 ng of EGFP-C1 (HCT116 and SW480). The cells were transfected with other plasmids following experimental requirements, LacZs were added to meet a total content of 250 ng (in RNAi and plasmid co-transfection experiments, 1 μl of siRNA was added when every 100 ng/well of the plasmid was transfected). Wnt3a conditioned medium was added 18 hours after transfection to stimulate the cells for 6-8 hours, the cells were lysed using Boehringer Mannheim Luci-ferase Assay Kit (200 μl/well). Intensity of GFP proteins in cell lysates were determined as internal standards of expression quantity of the cells using fluorescence meter FL600 (BIO-TEK Inc. Winooski, Vt.), and then 20 μl of luciferase substrates were added. Luciferase activity was determined with Micro Lumate Plus (Perkin Elmer Inc. Wellesley, Mass.) luminometer. Finally, the luciferase activity was homogenized using activity of GFP.

| Compound | EC50 [3] [µM] | CC50 [2] [µM] | other results |
| --- | --- | --- | --- |
| CCC[C@H](NC(=O)[C@@H]1[C@H]2CCC[C@H]2CN1C(=O)[C@@H](NC(=O)[C@@H](NC(=O)c1cnccn1)C1CCCCC1)C(C)(C)C)C(=O)C(=O)NC1CC1 [VX-950, telaprevir, reference compound] |  |  | CC50 at 72 h [1]: 39.5 ± 4.9 µM; CC50 ([2]; Huh7.5 cells, 72 hrs, MTT, half toxic concentration by Reed-Muench method): 32.5 ± 0.58 µM |
| C=Cc1cccc2c1N(C)Cc1cc(OC(=O)CCCC)c(OC(=O)CCCC)cc1-2 [Compound 11k, 4-ethenyl-5-methyl-8,9-divaleryoxy-5,6-dihydro-phenanthridine] | 0.94 ± 0.02 | > 100 |  |
| CCc1cccc2c1N(C)Cc1cc(OCc3cn(CCN)nn3)c(OCc3cn(CCN)nn3)cc1-2 [Compound 10q, 4-ethyl-5-methyl-8,9-bis[1-(2-amino-ethyl)-1H-[1,2,3]triazol-4-ylmethoxy]-5,6-dihydro-phenanthridine] |  |  | activation of the reporter gene systems of classical Wnt signaling pathway ([4]; in the way of depending on Wnt3a receptors): activate the reporter gene systems of classical Wnt signaling pathway; Concentration of compounds for doubly synergetic activating Wnt reporter gene ([4]; reporter gene, with Wnt3a conditioned medium): 1.25 µM; melting point: 196 to 197 °C |
| C=Cc1cccc2c1N(C)Cc1cc(OC(=O)c3ccc(Br)cc3)c(OC(=O)c3ccc(Br)cc3)cc1-2 [Compound 11n, 4-ethenyl-5-methyl-8,9-di(4-bromo)benzoyloxy-5,6-dihydro-phenanthridine] | 4.58 ± 0.55 | 82.6 ± 3.28 |  |
| CCOc1cc2c(cc1OCC)-c1cccc(CC)c1N(C)C2 [Compound 10b, 4-ethyl-5-methyl-8,9-diethyoxy-5,6-dihydro-phenanthridine] | 1.63 ± 1.22 | > 100 |  |
| C=Cc1cccc2c1N(C)Cc1cc(OCc3cccc(OC)c3OC)c(OCc3cccc(OC)c3OC)cc1-2 [Compound 11f, 4-ethenyl-5-methyl-8,9-di(2,3-dimethoxy)benzyloxy-5,6-dihydro-phenanthridine] | 0.3 ± 0.01 | 32.9 ± 1.28 |  |

Source: patent US9682954B2, “Phenanthridine derivatives, preparation methods and uses thereof” (Kunming Institute of Botany, The Chinese Academy of Sciences, priority 2013, dated 2017)
